Assay results from US5081131A, “Omega-((hetero)alkyl)benz(cd)-indol-2-amines” (American Cyanamid Company, priority 1988, dated 1992).
Structures can show the parent of a compound that is named as a salt. Where two headings read alike, the source gives them in different places.

Assays:
[1] = tested on: spontaneously hypertensive rats; assay: Hypotensive activity in spontaneously hypertensive rats (MABP); format: in vivo, rat (Okamoto strain); conditions: SHR, gavage, two doses of 10 mg/kg or less 24 h apart, MABP at 28 h; average baseline 160±1.5 mm Hg
Procedure: The novel compounds of the present invention are active hypotensive agents and were tested for hypotensive activity by the method of P. S. Chan and D. Poorvin, Clinical and Experimental Hypertension, 1 (6), 817-830 (1979). Male, 16 week old, spontaneously hypertensive rats of the Okamoto strain, from Taconic Farms, Germantown, N.Y., having an average mean arterial blood pressure of 160±1.5 mm of mercury, were used in the test. One to 4 rats were used per test compound. A rat was dosed by gavage with a test compound, suspended in 2% pre-boiled starch at a concentration of 50 mg/ml, at a doses of 10 mg/kg of body weight or less, with 0.9% sodium chloride loading at a dose of 25 ml/kg of body weight. A second identical dose of the test compound, without sodium chloride loading was given 24 hours later. At 28 hours after initial dose the mean arterial blood pressure (MABP) was measured. The procedure was repeated in a second and third rat when necessary.

[2] = molecular target: T1, thromboxane synthetase enzyme (Rattus norvegicus, UniProt P49430); assay: Thromboxane synthetase enzyme inhibition (TXB2 formation in washed platelets, RIA); format: cell-based, spontaneously hypertensive rat; conditions: SHR platelets, 10 min at 37° C.
T1 construct: endogenous in cells; host or cells: washed platelets from arterial blood of male Okamoto-Aoki spontaneously hypertensive rats (animals from Taconic Farms, Germantown, N.Y.)
T1 sequence (P49430 1-533): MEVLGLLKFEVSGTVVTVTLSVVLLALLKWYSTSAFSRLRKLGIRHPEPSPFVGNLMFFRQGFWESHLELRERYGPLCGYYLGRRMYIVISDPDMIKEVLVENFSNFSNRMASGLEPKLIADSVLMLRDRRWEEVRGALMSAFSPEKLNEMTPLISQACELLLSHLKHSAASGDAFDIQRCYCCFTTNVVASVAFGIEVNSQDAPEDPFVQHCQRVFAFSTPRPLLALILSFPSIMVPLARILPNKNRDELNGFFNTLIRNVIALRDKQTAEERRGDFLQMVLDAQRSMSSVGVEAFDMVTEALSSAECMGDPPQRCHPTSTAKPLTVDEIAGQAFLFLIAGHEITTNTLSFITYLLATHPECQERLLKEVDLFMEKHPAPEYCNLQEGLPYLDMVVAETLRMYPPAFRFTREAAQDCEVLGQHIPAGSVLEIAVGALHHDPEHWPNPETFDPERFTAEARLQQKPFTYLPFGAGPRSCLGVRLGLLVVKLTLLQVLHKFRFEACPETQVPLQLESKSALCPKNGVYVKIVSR
Procedure: The blood was diluted with 3 ml cold saline and centrifuged at room temperature for 15 min at 468×g. The platelet rich plasma (PRP) was separated. The platelets were isolated by certrifuging the PRP for 10 minutes at 1060×g and washed in 4 ml cold oxygenated Krebs phosphate buffer, pH 7.4. The chilled platelets recovered from centrifuging at 800×g for 10 minutes were resuspended in oxygenated Krebs phosphate buffer and diluted to contain 4.0-6.0×10^4 platelets/micro-liters. The inhibition of TX formation was studied by determining the concentration of thromboxane B2 (TXB2), the stable hydrolysis product of TXA2. Assay samples prepared on ice, contained 200 micro-liters platelet suspension, 50 micro-liters saline, and 50 micro-liters […] (saline) or drug under study. The test drug (0.003 mole) was dissolved in 5 ml of saline. […] The assay samples were incubated for 10 minutes at 37° C. in a metabolic shaker at about 60 rpm. The reaction was terminated by immersing the tubes in an ice bath and adding 50 micro-liters of 0.5M citric acid. The samples were centrifuged for 10 minutes at 2000 rpm at 4° C., and the supernatants were decanted.

[3] = 1×10^-4 Molar, read-out: % Inhibition (Thromboxane Synthetase Enzyme Inhibition)

Row | SMILES | inhibition at 100 µM [2, 3] [%] | Avg. MABP in mm Hg (No. of Rats) [1] [mm Hg] | % Inhibition (Thromboxane Synthetase Enzyme Inhibition) ([2]; 1×10^-4 Molar) [%] | inhibition at 100 µM ([2]; read-out: % Inhibition (Thromboxane Synthetase Enzyme Inhibition), 1×10^-4 Molar) [%]
1 | O=C(O)/C=C/C(=O)O.c1cc2c3c(cccc3c1)C(NCc1ccc(Cn3ccnc3)cc1)=N2 [N-((4-(1H-imidazol-1-ylmethyl)phenyl)methyl)benz(cd)indol-2-amine, fumarate] | 100 | 121 |  | 
2 | O=C(O)/C=C/C(=O)O.c1cncc(OCCCNC2=Nc3cccc4cccc2c34)c1 [N-(3-(3-Pyridinyloxy)propyl)benz(cd)indol-2-amine, fumarate] | 94 | 116 |  | 
3 | Clc1cc(Cl)c2cccc3c2c1N=C3NCCCn1ccnc1 [6,8-Dichloro-N-(3-(1H-imidazol-1-yl)propyl)benz(cd)indol-2-amine] | 97 | 102 |  | 
4 | O=C(O)/C=C/C(=O)O.c1coc(CNC2=Nc3cccc4cccc2c34)c1 [N-(2-Furanylmethyl)benz(cd)indol-2-amine fumarate] | 93 | 142 |  | 
5 | Brc1ccc2c3c(cccc13)C(NCCCCCCCCCCCCn1ccnc1)=N2 [6-Bromo-N-(12-(1H-imidazol-1-yl)dodecyl)benz(cd)indol-2-amine] | 90 | 128 |  | 
6 | Brc1ccc2c3c(cccc13)C(NCCCCc1cccnc1)=N2 [6-Bromo-N-(4-(3-pyridinyl)butyl)benz(cd)indol-2-amine sesqui-fumarate] | 92 | 110 |  | 
7 | c1cc2c3c(cccc3c1)C(NCCCn1cnc3ccccc31)=N2 [N-(3-(1H-benzimidazol-1-yl)propyl)benz(cd)indol-2-amine] |  | 124 | 60 | 
8 | O=C(O)/C=C/C(=O)O.c1cc2c3c(cccc3c1)C(NCCCn1cnc3ccccc31)=N2 [N-(3-(1H-benzimidazol-1-yl)propyl)benz(cd)indol-2-amine, fumarate] |  | 123 | 90 | 
9 | Brc1ccc2c3c(cccc13)C(NCCCCc1cccnc1)=N2.Cl.Cl [6-Bromo-N-(4-(3-pyridinyl)butyl)benz(cd)indol-2-amine, dihydrochloride] |  | 99 | 89 | 
10 | c1ccc(-n2ncc(CNC3=Nc4cccc5cccc3c45)n2)cc1 [N-((2-Phenyl-2H-1,2,3-triazol-2-yl)methyl)benz(cd)indol-2-amine fumarate] | 73 |  |  | 
11 | CC(CNC1=Nc2cccc3cccc1c23)Cc1cccnc1.O=C(O)/C=C/C(=O)O (stereo not drawn) [N-(2-Methyl-3-(3-pyridinyl)propyl)benz(cd)indol-2-amine, fumarate] | 99 | 124 |  | 
12 | O=C(O)/C=C/C(=O)O.c1cncc(CCCNC2=Nc3cccc4cccc2c34)c1 [N-(3-(3-Pyridinyl)propyl)benz(cd)indol-2-amine, fumarate] | 97 | 93 |  | 
13 | c1cc2c3c(cccc3c1)C(NCCCCn1ccnc1)=N2 [N-(4-(1H-imidazol-1-yl)butyl)benz(cd)indol-2-amine monobutanedioic acid salt] |  |  |  | 93
14 | OC(CNC1=Nc2cccc3cccc1c23)Cn1ccnc1 (stereo not drawn) [N-(3-(1H-imidazol-1-yl)-2-hydroxypropyl)benz(cd)indol-2-amine] | 88 |  |  | 
15 | Clc1ccc2c3c(cccc13)C(NCCCCCn1ccnc1)=N2 [6-Chloro-N-(5-(1H-imidazol-1-yl)pentyl)benz(cd)indol-2-amine] | 100 |  |  | 
16 | Clc1ccc(C(Cn2ccnc2)NC2=Nc3cccc4cccc2c34)cc1 (stereo not drawn) [N-(1-(4-chlorophenyl)-2-(1H-imidazol-1-yl)ethyl)benz(cd)indol-2-amine, fumarate] | 35 |  |  | 
17 | CC(CCCNC1=Nc2cccc3cccc1c23)n1ccnc1.O=C(O)/C=C/C(=O)O.O=C(O)/C=C/C(=O)O (stereo not drawn) [N-(4-(1H-imidazol-1-yl)pentyl)benz(cd)indol-2-amine, bis-fumarate] |  |  | 99 | 

Continued, in another order:

Row | inhibition at 100 µM [2, 3] [%] | SMILES | Avg. MABP in mm Hg (No. of Rats) [1] [mm Hg] | % Inhibition (Thromboxane Synthetase Enzyme Inhibition) ([2]; 1×10^-4 Molar) [%] | inhibition at 100 µM ([2]; read-out: % Inhibition (Thromboxane Synthetase Enzyme Inhibition), 1×10^-4 Molar) [%]
18 | 95 | CC(=O)N(CCCc1cccnc1)C1=Nc2cccc3cccc1c23 [N-Benz(cd)indol-2-yl-N-(3-(3-pyridinyl)propyl)acetamide] | 85 |  | 
19 | 85 | Brc1ccc2c3c(cccc13)C(NCCCn1ccnc1)=N2 [6-Bromo-N-(3-(1H-imidazol-l-yl)propyl)benz(cd)indol-2-amine, dihydrochloride] | 117 |  | 
20 | 95 | CC(CNC1=Nc2cccc3cccc1c23)Cn1ccnc1.Cl.Cl (stereo not drawn) [N-(3-(1H-imidazol-1-yl)-2-methylpropyl)benz(cd)indol-2-amine, dihydrochloride] | 113 |  | 
21 | 97 | C(=C/Cn1ccnc1)/CNC1=Nc2cccc3cccc1c23.Cl.Cl [(Z)-N-(4-(1H-imidazol-1-yl)-2-butenyl)benz(cd)indol-2-amine, dihydrochloride] | 77 |  | 
22 | 96 | CC(CCNC1=Nc2cccc3cccc1c23)c1cccnc1 (stereo not drawn) [N-(3-(3-Pyridinyl)butyl)benz(cd)indol-2-amine] | 110 |  | 
23 | 100 | Cl.Cl.c1cc2c3c(cccc3c1)C(NCCCCCCCCn1ccnc1)=N2 [N-(8-(1H-imidazol-1-yl)octyl)benz(cd)indol-2-amine, dihydrochloride] | 111 |  | 
24 | 98.5 | CC(=O)N(CCCCn1ccnc1)C1=Nc2cccc3cccc1c23 [N-Benz(cd)indol-2-yl-N-(4-(1H-imidazol-1-yl)butyl)acetamide] | 81 |  | 
25 | 93 | Clc1cc(Cl)c2cccc3c2c1N=C3NCCCCc1cccnc1 [6,8-Dichloro-N-(4-(3-pyridinyl)butyl)benz(cd)indol-2-amine] | 102 |  | 
26 | 92 | CC(CCNC1=Nc2cccc3cccc1c23)n1ccnc1 (stereo not drawn) [N-(3-(1H-imidazol-l-yl)butyl)benz(cd) indol-2-amine, dihydrochloride] | 104 |  | 
27 | 93 | COc1ccccc1C(=O)N(CCCCn1ccnc1)C1=Nc2cccc3cccc1c23 [N-Benz(cd)indol-2-yl-N-(4-(1H-imidazol-1-yl)butyl)-2-methoxybenzamide] | 76 |  | 
28 | 77 | O=C(c1ccccc1)N(CCCn1cncn1)C1=Nc2cccc3cccc1c23 [N-Benz(cd)indol-2-yl-N-(3-(1H-1,2,4-triazol-1-yl)propyl)benzamide] |  |  | 
29 | 96 | O=C(c1ccc(Cl)cc1)N(CCCCn1ccnc1)C1=Nc2cccc3cccc1c23 [N-Benz(cd)indol-2-yl-4-chloro-N-(4-(1-imidazol-1-yl)butylbenzamide] |  |  | 
30 | 68 | c1cncc(CNC2=Nc3cccc4cccc2c34)c1 [N-(3-Pyridinylmethyl)benz(cd)indol-2-amine, fumarate] |  |  | 
31 | 95 | CCC(=O)N(CCC(C)n1ccnc1)C1=Nc2cccc3cccc1c23 (stereo not drawn) [N-Benz(cd)indol-2-yl-N-(3-(1H-imidazol-1-yl)butyl)propionamide] |  |  | 
32 | 98 | c1cc2c3c(cccc3c1)C(NCCOCCn1ccnc1)=N2 [N-(2-(2-(1H-imidazol-1-yl)ethoxy)ethyl)benz(cd)indol-2-amine bis-fumarate] |  |  | 
33 | 71 | c1cc2c3c(cccc3c1)C(NCCn1ccnc1)=N2 [N-(2-(1H-imidazol-1-yl)ethyl)benz(cd)indol-2-amine] |  |  | 
